Values of other authors, collected in patent US20210054334A1, “DIRECTED DIFFERENTIATION OF ASTROCYTES FROM HUMAN PLURIPOTENT STEM CELLS FOR USE IN DRUG SCREENING AND THE TREATMENT OF AMYOTROPHIC LATERAL SCLEROSIS (ALS)” (Kadimastem Ltd., priority 2013, published 2021).

Details: ALS

## Nc1nc2ccc(OC(F)(F)F)cc2s1 [Rilutek, Riluzole]
  extension of lifespan: only extends lifespan by a maximum of three months
